Where two headings read alike, the source gives them in different places.
Columns and labels:
[1] = target: T1, adenosine A2 receptor (Rattus norvegicus, UniProt P30543); assay: Adenosine A2 receptor binding (RBA-2), displacement of [3H]NECA
T1 construct: Brains were thawed and then kept on ice while the striata were dissected out; tissue Pel-Freez (Rogers, Ark.); host or cells: rat striatum (Sprague-Dawley brains; Long-Evans gave essentially identical results)
Method: Brains from 200-500 g mixed sex Sprague-Dawley rats were purchased from Pel-Freez (Rogers, Ark.). […] Brains were thawed and then kept on ice while the striata were dissected out. […] The suspension was centrifuged at 50,000 xg for ten minutes, the supernatant discarded, the pellet resuspended in 10 vol ice-cold Tris as above, recentrifuged, resuspended at 1 g/5 ml, and stored in plastic vials at -70° C. […] When needed, tissue was thawed at room temperature, disrupted in a Polytron, and kept on ice until used.
All incubations were for 60 minutes at 25° C. in 12×75 mm glass tubes containing 1 ml Tris with 5 mg original tissue weight of rat weight of rat striatal membranes, 4 nM [^3 H]-N-ethyl adenosine-5'-carboxamide ([^3 H]NECA), 50 nM N^6 -cyclopentyladenosine (to eliminate A1 receptor binding), 10 mM MgCl2, 0.1 units/ml of adenosine deaminase and 1% dimethylsulfoxide. N^6 -Cyclopentyladenosine was dissolved at 10 mM in 0.02N HCl and diluted in Tris. […] Test compounds were dissolved at 10 mM in dimethylsulfoxide on the same day as the experiment, and diluted in dimethylsulfoxide to 100× the final incubation concentration. […] [^3 H]NECA was diluted to 40 nM in Tris. The membrane suspension (5 mg/0.79 ml) contained sufficient MgCl2 and adenosine deaminase to give 10 mM and 0.1 units/ml, respectively, final concentration in the incubation. […] After all additions, the rack of tubes was vortexed, and the tubes were then incubated for 60 min at 25° C. in a shaking water bath. The rack of tubes was vortexed an additional time halfway through the incubation.
Incubations were terminated by filtration through 2.4 cm GF/B filters under reduced pressure. Each tube was filtered as follows: the contents of the tube were poured onto the filter, 4 ml of ice-cold Tris were added to the tube and the contents poured onto the filter, and the filter was washed twice with 4 ml of ice-cold Tris. The filtration was complete in about twelve seconds.
Nonspecific binding was defined as binding in the presence of 100 μM N^6 -cyclopentyladenosine, and specific binding was defined as total binding minus nonspecific binding. The IC50 was calculated by weighted nonlinear least squares curve-fitting to the mass-action equation. [formula] where Y is cpm bound
T is cpm total binding without drug
S is cpm specific binding without drug
D is the concentration of drug and
K is the IC50 of the drug
Weighting factors were calculated under the assumption that the standard deviation was proportional to the predicted value of Y. Nonspecific binding was treated as a very large (infinite) concentration of drug in the computer analysis.

[2] = test system: male Swiss-Webster mice; assay: Antiwrithing (AW) test, acetic acid; format: in vivo; conditions: Mus musculus, sc; subcutaneous, 20 minutes before acetic acid i.p.; read-out: ED50, suppression of writhing by 50% relative to vehicle controls
Method: The antiwrithing (AW) test provides preliminary assessment of compounds with potential analgesic activity. The test is performed in male Swiss-Webster mice. Compounds are administered subcutaneously in aqueous 0.2% methylcellulose or other appropriate vehicles in volumes of 10 ml/kg. Dosages represent active moiety.
Acetic acid (0.6%, 10 ml/kg) is injected intraperitoneally 20 minutes after administration of the adenosine agonist. Writhing movements are counted for five minutes starting seven minutes after the acetic acid injection. Writhing is defined as abdominal constriction and stretching of the body and hind legs with concave arching of the back. Data are expressed as ED50 values, where the ED50 is the dose necessary to suppress writhing by 50% relative to vehicle controls. ED50 values are calculated by nonlinear regression analysis.

[3] = 4 nM [3H]NECA, 50 nM N6-cyclopentyladenosine, rat striatal membranes, read-out: RBA-2 (IC50, adenosine A2 receptor affinity)

T1 sequence (P30543 whole entry): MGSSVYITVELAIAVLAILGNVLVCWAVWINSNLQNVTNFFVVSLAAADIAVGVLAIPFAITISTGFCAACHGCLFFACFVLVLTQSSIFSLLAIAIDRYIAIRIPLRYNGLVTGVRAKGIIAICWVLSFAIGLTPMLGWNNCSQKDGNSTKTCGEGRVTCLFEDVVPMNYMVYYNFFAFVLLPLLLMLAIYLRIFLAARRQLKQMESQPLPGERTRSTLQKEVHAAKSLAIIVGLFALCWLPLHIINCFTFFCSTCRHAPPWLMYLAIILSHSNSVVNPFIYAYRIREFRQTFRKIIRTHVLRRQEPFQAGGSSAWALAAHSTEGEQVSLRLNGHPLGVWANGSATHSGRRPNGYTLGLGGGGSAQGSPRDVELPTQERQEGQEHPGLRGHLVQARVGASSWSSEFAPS

SMILES	IC50 [1, 3]	ED50 [2]	IC50 [1]
OCC(O)CNc1ncnc2c1ncn2[C@@H]1O[C@H](CO)[C@@H](O)[C@@H]1O (stereo partly drawn) [Example 1, (R,S)-N^6 [2,3-Dihydroxypropyl]adenosine]	19 µM	0.07 mg/kg	
OC[C@@H](O)CNc1ncnc2c1ncn2[C@@H]1O[C@H](CO)[C@@H](O)[C@H]1O [Example 3]			20 µM

Continued, in another order:

IC50 [1, 3]	SMILES	ED50 [2]	IC50 [1]
24 µM	CC1(C)OCC(CNc2ncnc3c2ncn3[C@@H]2O[C@H](CO)[C@@H](O)[C@H]2O)O1 (stereo partly drawn) [Example 4, (R,S)-N^6-[2,3Dihydroxypropylisopropylidene]adenosine]		
15 µM	CC1(C)OC[C@@H](CNc2ncnc3c2ncn3[C@@H]2O[C@H](CO)[C@@H](O)[C@H]2O)O1 [Example 5, (R)-N^6-[2,3-Dihydroxypropylisopropylidene]-adenosine]		
75 µM	Nc1nc(NCC(O)CO)c2ncn([C@@H]3O[C@H](CO)[C@@H](O)[C@H]3O)c2n1 (stereo partly drawn) [Example 8]		

From patent US4616003A, “N^6 -dihydroxypropyladenosines” (Warner-Lambert Company, priority 1985, dated 1986)
